Measurements published in US5225607A, “Insecticidal ethers” (Imperial Chemical Industries PLC, priority 1985, dated 1993).

Columns and labels:
Assay type in all cases: in vivo
[1] = test system: Blattella germanica; test: Insecticidal test, Blattella germanica (cockroach nymphs), residual; details: 72 h, plastic pot, 3 days, read-out: grading of mortality, BG
How it was run: (§1)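 Product applied at 500, 250 or 100 ppm as acetone solution diluted in water with 0.01% Lissapol NX wetting agent, onto pests and/or their host plant or food medium. Mortality or knockdown scored 1–3 days after treatment and graded A (80–100%; 70–100% for S. exigua), B (50–79%; 50–69% for S. exigua) or C (<50%).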

[2] = test system: Nilaparvata lugens; test: Insecticidal test, Nilaparvata lugens (brown planthopper), contact; details: 72 h, Cabbage leaf, 3 days, read-out: grading of mortality, NL
How it was run: as §1

[3] = test system: Musca domestica; test: Insecticidal test, Musca domestica (houseflies - adults), contact; details: 24 h, cotton wool/sugar, 1 day, read-out: grading of mortality, MD
How it was run: as §1

[4] = test system: Musca domestica; test: Knockdown test, Musca domestica (houseflies - adults); details: cotton wool/sugar, 4 hours, read-out: grading of knockdown, MD/KD
How it was run: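 Adult houseflies were exposed to the compound as aqueous acetone preparations with 0.01% Lissapol NX wetting agent, at 500, 250 or 100 ppm. Knockdown was graded A (80–100%), B (50–79%) or C (<50%).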

[5] = test system: Diabrotica balteata; test: Insecticidal test, Diabrotica balteata (rootworm larvae), residual; details: 72 h, filter paper/maize seed, 3 days, read-out: grading of mortality, DB
How it was run: as §1

[6] = test system: Tetranychus urticae; test: Insecticidal/acaricidal test, Tetranychus urticae (spider mites - adult), contact; details: 72 h, French bean leaf, 3 days, read-out: grading of mortality, TU
How it was run: as §1

[7] = test system: Spodoptera exigua; test: Insecticidal test, Spodoptera exigua (lesser armyworm), residual; details: 72 h, cotton leaf, 3 days, read-out: grading of mortality, SE
Procedure: The activity of the Product was determined using a variety of insect and acarine pests. The Product was used in the form of liquid preparations containing 500, 250 or 100 parts per million (ppm) by weight of the Product. The preparations were made by dissolving the Product in acetone and diluting the solutions with water containing 0.01% by weight of a wetting agent sold under the trade name "LISSAPOL" NX until the liquid preparations contained the required concentratio of the Product. "Lissapol" is a Registered Trade Mark.
The test procedure adopted with regard to each pest was basically the same and comprised supporting a number of the pests on a medium which was usually a host plant or a foodstuff on which the pests feed, and treating either or both the pests and the medium with the preparations. The mortality of the pests was then assessed at periods usually varying from one to three days after the treatment.
The results of the tests are given in Table IV for each of the Products, at the rate in parts per million given in the second column as a grading of mortality designated as A, B or C wherein A indicates 80-100% mortality or knockdown (70-100% in the case of Spodoptera exigua), B indicates 50-79% mortality or knockdown (50-69% in the case of Spodoptera exigua) and C indicates less than 50% mortality or knockdown.
In Table IV the pest organism used is designated by a letter code and the pest species, the support medium or food, and the type and duration of test is given in Table III.

[8] = test system: Myzus persicae; test: Insecticidal test, Myzus persicae (aphids), contact; details: 72 h, Chinese Cabbage leaf, 3 days, read-out: grading of mortality, MP
How it was run: as §1

[9] = test system: Heliothis virescens; test: whole plant or invertebrate; details: in Gossypium hirsutum, 72 h, read-out: grading of mortality, HV
How it was run: as §1

Structure (SMILES) | mortality at 500 ppm [1] [%] | mortality at 500 ppm [2] [%] | mortality at 500 ppm [3] [%] | pest or weed control at 500 ppm [4] [%] | mortality at 500 ppm [5] [%] | mortality at 500 ppm [6] [%] | mortality at 500 ppm [7] [%] | mortality at 500 ppm [8] [%] | mortality at 500 ppm [9] [%] | further results
Fc1ccc(COC=C(c2ccc(OC(F)(F)F)cc2)C(F)(F)F)cc1Oc1ccccc1 [Compound 462, 1,1,1-trifluoro-2-(4-trifluoromethoxyphenyl)-3-(3-phenoxy-4-fluorobenzyloxy)prop-2-ene] | – | – | – | – | – | – | – | – | – | mortality at 100 ppm [1]: 80 to 100%; mortality at 100 ppm [2]: < 50%; mortality at 100 ppm [3]: 80 to 100%; pest or weed control at 100 ppm [4]: 80 to 100%; mortality at 100 ppm [5]: 50 to 79%; mortality at 100 ppm [6]: < 50%; mortality at 100 ppm [7]: 70 to 100%; mortality at 100 ppm [8]: < 50%; mortality at 100 ppm [9]: 80 to 100%
FC(F)(F)C(Cl)(COCc1cccc(Oc2ccc(Cl)cc2)c1)c1ccc2c(c1)OCO2 (stereo not drawn) [Compound 65, 1,1,1-Trifluoro-2-chloro-2-(3,4-methylenedioxyphenyl)-3-(3-(4-chlorophenoxy)-benzyloxy)propane] | 80 to 100 | < 50 | < 50 | < 50 | < 50 | < 50 | 50 to 69 | < 50 | 80 to 100 | –
CCOc1c(F)cc(C(O)(COCc2cccc(Oc3ccccc3)c2)C(F)(F)F)cc1F (racemic) [Compound 176, (RS)-1,1,1-trifluoro-2-(3,5-difluoro-4-ethoxyphenyl)-3-(3-phenoxybenzyloxy)propan-2-ol] | < 50 | < 50 | < 50 | 80 to 100 | 80 to 100 | < 50 | 70 to 100 | < 50 | 50 to 79 | –
OC(COCc1cccc(Oc2ccccc2)c1)(c1ccc2c(c1)OCO2)C(F)(F)F (stereo not drawn) [Compound 128, 1,1,1-trifluoro-2-(3,4-methylenedioxyphenyl)-3-(3-phenoxybenzyloxy)propan-2-ol] | < 50 | < 50 | 50 to 79 | < 50 | 50 to 79 | < 50 | 70 to 100 | < 50 | 80 to 100 | –
FC(F)(F)Oc1ccc(C(COCc2cccc(Oc3ccccc3)n2)C(F)(F)F)cc1 (stereo not drawn) [Compound 28, 1,1,1-Trifluoro-2-(4-trifluoromethoxyphenyl)-3-(6-phenoxy-2-pyridylmethyloxy)propane] | – | – | – | – | – | – | – | – | – | mortality at 100 ppm [1]: 80 to 100%; mortality at 100 ppm [2]: 80 to 100%; mortality at 100 ppm [3]: 80 to 100%; pest or weed control at 100 ppm [4]: 80 to 100%; mortality at 100 ppm [5]: 80 to 100%; mortality at 100 ppm [6]: < 50%; mortality at 100 ppm [7]: 70 to 100%; mortality at 100 ppm [8]: 80 to 100%; mortality at 100 ppm [9]: 80 to 100%
OC(COCc1cccc(Oc2ccc(Cl)cc2)c1)(c1ccc(OC(F)(F)F)cc1)C(F)(F)F (stereo not drawn) [Compound 135, 1,1,1-Trifluoro-2-(4-trifluoromethoxyphenyl)-3-(3-(4-chlorophenoxy)benzyloxy)propan-2-ol] | – | – | – | – | – | – | – | – | – | mortality at 250 ppm ([1]; 250 ppm): < 50%; mortality at 250 ppm ([2]; 250 ppm): < 50%; mortality at 250 ppm ([3]; 250 ppm): < 50%; pest or weed control at 250 ppm ([4]; 250 ppm): 80 to 100%; mortality at 250 ppm ([5]; 250 ppm): < 50%; mortality at 250 ppm ([6]; 250 ppm): < 50%; mortality at 250 ppm ([7]; 250 ppm): 70 to 100%; mortality at 250 ppm ([8]; 250 ppm): < 50%; mortality at 250 ppm [9]: 80 to 100%
Fc1ccc(COCC(F)(c2ccc(Br)cc2)C(F)(F)F)cc1Oc1ccccc1 (stereo not drawn) [Compound 83, 1,1,1,2-Tetrafluoro-2-(4-bromophenyl)-3-(3-phenoxy-4-fluorobenzyloxy)propane] | 80 to 100 | 80 to 100 | 80 to 100 | 80 to 100 | 80 to 100 | < 50 | 70 to 100 | 80 to 100 | 80 to 100 | –
Cc1ccc(C(O)(COCc2cccc(Oc3ccccc3)c2)C(F)(F)F)cc1 (stereo not drawn) [Compound 120, 1,1,1-Trifluoro-2-(4-methylphenyl)-3-(3-phenoxybenzyloxy)propan-2-ol] | < 50 | < 50 | < 50 | 80 to 100 | < 50 | < 50 | < 50 | < 50 | < 50 | –
CCOc1c(F)cc(C(COCc2ccc(F)c(Oc3ccccc3)c2)C(F)(F)F)cc1F (racemic) [Compound 166, (RS)-1,1,1-Trifluoro-2-(3,5-difluoro-4-ethoxyphenyl)-3-(3-phenoxy-4-fluorobenzyloxy)propane] | 80 to 100 | 80 to 100 | 80 to 100 | 80 to 100 | 80 to 100 | 80 to 100 | 70 to 100 | 50 to 79 | 80 to 100 | –
OC(COCc1cccc(Oc2ccc(Cl)cc2)c1)(c1ccc2c(c1)OCO2)C(F)(F)F (stereo not drawn) [Compound 129, 1,1,1-Trifluoro-2-(3,4-methylenedioxyphenyl)-3-(3-(4-chlorophenoxy)benzyloxy)propan-2-ol] | < 50 | 80 to 100 | 80 to 100 | 80 to 100 | < 50 | < 50 | 70 to 100 | 50 to 79 | 50 to 79 | –
OC(COCc1cccc(Oc2ccccc2)n1)(c1ccc(OC(F)(F)F)cc1)C(F)(F)F (stereo not drawn) [Compound 136, 1,1,1-Trifluoro-2-(4-trifluoromethoxyphenyl)-3-(6-phenoxy-2-pyridylmethyloxy)propan-2-ol] | < 50 | < 50 | 80 to 100 | 80 to 100 | 80 to 100 | < 50 | < 50 | < 50 | 50 to 79 | –
FC(F)(F)C(COCc1cccc(Oc2ccccc2)c1)c1ccc2c(c1)OCO2 (stereo not drawn) [Compound 31, 1,1,1-Trifluoro-2-(3,4-methylenedioxyphenyl)-3-(3-phenoxybenzyloxy)propane] | 80 to 100 | 80 to 100 | 80 to 100 | 80 to 100 | 80 to 100 | < 50 | 70 to 100 | 80 to 100 | 80 to 100 | –
CCOc1ccc(C(COCc2cccc(Nc3ccc(F)cc3)c2)C(F)(F)F)cc1 (stereo not drawn) [Compound 11, 1,1,1-Trifluoro-2-(4-ethoxyphenyl)-3-(3-(4-fluorophenylamino)benzyloxy)propane] | 50 to 79 | 80 to 100 | 50 to 79 | 80 to 100 | < 50 | < 50 | 50 to 69 | < 50 | < 50 | –
